Like-named read-outs stand apart in the source and are kept apart here.
Tests used:
ddY mice [1] = assay: Formalin test in mice; type: in vivo; details: oral 10 mg/kg, FIG. 2; for indicator of pain (licking time), phase II: 10 to 30 minutes after formalin; for indicator of pain (licking time), phase I: within 10 minutes after formalin
Experimental: ddY mice were grown for at least 16 hours under fasting conditions while free water intake was allowed, and a solution of the test compound or a solvent was orally administered thereto (0.1 ml/10 g). As a solvent for a solution of the test compound, 27% HP-β-CD was used. Thirty minutes after administration, 20 μl of a 2.5% formalin solution was subcutaneously administered to the ichnograms of right posterior legs of mice to induce a movement of licking. A movement of mice to lick the treated legs was designated as an indicator of pain, and the licking time was measured at 5-minute intervals for 30 minutes. The reaction that had occurred within 10 minutes immediately after administration of the formalin solution was designated as the phase I reaction, and the reaction that had occurred 10 to 30 minutes after administration was designated as the phase II reaction.

ddY mice [2] = assay: Acetic acid writhing test in mice (analgesic effects); type: in vivo; details: for ED50: Mus musculus
Experimental: ddY mice were grown for at least 16 hours under fasting conditions while free water intake was allowed, and a solution of the test compound or a solvent was orally administered thereto (0.1 ml/10 g). As a solvent for a solution of the test compound, dimethyl sulfoxide (DMSO):Tween 80:27% hydroxypropyl-P-cyclodextrin (hereafter abbreviated to “HP-β-CD”) (1:1:8) or 27% HP-β-CD was used. A solution of 0.6% acetic acid (0.1 ml/10 g) was administered intraperitoneally 45 minutes after administration to induce a writhing reaction (i.e., a movement of stretching or arching the body). The number of the writhing reactions that had occurred for the period from 10 minutes after administration of the acetic acid solution to 10 minutes thereafter was counted, and the number of times was designated as an indicator of pain. The number of times of reactions in the group to which a solvent had been administered was designated as 100%, and the concentration of the test compound that had inhibited 50% of such reaction was designated as the ED50 value.
The compound of Reference Example 78 is disclosed in the claims of JP Patent Publication (kohyo) No. 2006-517535 A, the compounds of Reference Examples 93 and 199 are disclosed in the claims of JP Patent No. 3003148, and the compound of Reference Example 103 is disclosed in the claims of JP Patent Publication (kohyo) No. 2006-514095 A. Thus, these compounds were compared with the compounds of the present invention having similar structures in terms of analgesic effects with oral administration (Table 4) or subcutaneous administration (Table 5). Dimethyl sulfoxide (DMSO):Tween 80:27% HP-β-CD (1:1:8) or 27% HP-β-CD was used as a solvent for the test compound.

ICR mice = assay: Partial sciatic nerve ligation model in mice (Seltzer model), von Frey test; type: in vivo; details: 7 days after ligation, FIG. 1
Experimental: Analgesic effects of the compound of the present invention were evaluated using the partial sciatic nerve ligation model (Seltzer models) in mice, with which neuropathic pain can be evaluated.
Models of neuropathic pain were prepared in accordance with the method of Seltzer et al. ICR mice (5-week-old, male) were put under anesthesia with sodium pentobarbital (70 mg/kg, i.p.) to expose the sciatic nerve of the femoral region of the right posterior limb, and half of the sciatic nerve was strongly and triply ligated using 8-0 silk yarn (Natsume Seisakusho, Co., Ltd.) under a microscope (this group is designated as the “ligation group”). The group that had been subjected to exposure of the sciatic nerve without ligation was designated as a sciatic nerve control group (i.e., the “sham group”). […] The von Frey tests were performed 1 hour, 2 hours, and 3 hours after the oral administration for determining the pre-values prior to the administration of the test substances, which took place 7 days after the ligation surgery of sciatic nerve, and such values were designated as the indicators of analgesic effects. Gabapentin (30 mg/kg, po) was used as a positive control. As a solvent for the test compound, 27% HP—P—CD was used.
The obtained data were processed by performing a paired t-test amongst several groups and correcting the data via Dunnett's method.
The compound of Reference Example 78 is disclosed in the claims of JP Patent Publication (kohyo) No. 2006-517535 A, the compounds of Reference Example 93 and Reference Example 199 are disclosed in the claims of JP Patent No. 3003148, and the compound of Reference Example 103 is disclosed in the claims of JP Patent Publication (kohyo) No. 2006-514095 A. Accordingly, sulfate of Reference Example 78, toluenesulfonate of Reference Example 93, the free compound of Reference Example 199, and sulfate of Reference Example 103 were used as test compounds and evaluated using mouse models of partial sciatic nerve ligation, which were similar to those used in Example 79. 27% HP-β-CD was used as a solvent for the test compounds.

COX-2 = target: T1, COX-2 (Homo sapiens, UniProt P35354); assay: Activity of inhibiting COX-2 in human blood (prostaglandin E2 after lipopolysaccharide); type: cell-based; details: prostaglandin E2 production
T1 construct: Human blood that had been sampled with the use of heparin (19 units/ml) was used; from tissue; host or cells: human whole blood (heparinised), aspirin-pretreated, stimulated with lipopolysaccharide
T1 sequence (P35354 18-604): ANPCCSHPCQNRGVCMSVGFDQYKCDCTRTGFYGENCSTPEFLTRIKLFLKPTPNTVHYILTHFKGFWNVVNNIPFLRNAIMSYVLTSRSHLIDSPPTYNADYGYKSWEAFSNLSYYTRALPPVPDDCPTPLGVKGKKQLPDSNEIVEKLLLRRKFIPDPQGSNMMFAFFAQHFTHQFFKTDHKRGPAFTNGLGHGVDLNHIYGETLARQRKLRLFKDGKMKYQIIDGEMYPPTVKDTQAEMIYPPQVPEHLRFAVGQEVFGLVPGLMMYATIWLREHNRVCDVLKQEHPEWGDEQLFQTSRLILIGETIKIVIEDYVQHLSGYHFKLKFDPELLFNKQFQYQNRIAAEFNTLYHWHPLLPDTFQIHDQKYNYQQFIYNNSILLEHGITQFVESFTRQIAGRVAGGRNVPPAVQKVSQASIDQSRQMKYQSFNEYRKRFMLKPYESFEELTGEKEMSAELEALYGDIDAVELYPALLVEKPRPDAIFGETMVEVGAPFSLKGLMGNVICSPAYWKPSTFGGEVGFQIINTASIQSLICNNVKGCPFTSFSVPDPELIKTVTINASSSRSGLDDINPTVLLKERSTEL
Experimental: Human blood that had been sampled with the use of heparin (19 units/ml) was used. Blood was fractionated to reaction tubes in amounts of 500 μl, aspirin (12 μg/ml) was added thereto, and the resultants were incubated at 37° C. for 6 hours. Thereafter, the test compound or solvent, and lipopolysaccharide (10 μg/ml) were added, and the reaction was allowed to proceed for 18 hours. After the completion of the reaction, the supernatant (blood plasma) was recovered via centrifugation at 4° C., and the amount of prostaglandin E2 in the plasma was quantified using a kit (514010, Cayman Chemical). Dimethyl sulfoxide (DMSO) was used as a solvent for the test compound. The amount of prostaglandin E2 produced via the addition of lipopolysaccharide was designated as 100%, and the concentration of the test compound that inhibits 50% of such reaction was represented by the IC50 value.

COX-1 = target: T2, COX-1 (Homo sapiens, UniProt P23219); assay: Activity of inhibiting COX-1 in human blood (thromboxane B2 after ionomycin); type: cell-based; details: thromboxane B2 production
T2 construct: Human blood that had been sampled with the use of heparin (19 units/ml) was used; from tissue; host or cells: human whole blood (heparinised)
Experimental: Human blood that had been sampled with the use of heparin (19 units/ml) was used. Blood was fractionated to reaction tubes in amounts of 500 μl, the test compound or solvent was added thereto, and the resultants were incubated at 37° C. for 60 minutes. Dimethyl sulfoxide (DMSO) was used as a solvent for the test compound. Thereafter, ionomycin (30 nM) was added, and the reaction was allowed to proceed for 30 minutes. After the completion of the reaction, the supernatant (blood plasma) was recovered via centrifugation at 4° C., and the amount of thromboxane B2 in the plasma was quantified using a kit (519031, Cayman Chemical). The amount of thromboxane B2 produced via the addition of ionomycin was designated as 100%, and the concentration of the test compound that inhibits 50% of such reaction was represented by the IC50 value.

[3] = sc, Table 5, subcutaneous administration, read-out: ED50 (mg/kg) [90% confidence limit]
[4] = oral administration 45 minutes before 0.6% acetic acid i.p., 50% inhibition of writhing reactions, read-out: ED50 (mg/kg)[90% confidence limit]
[5] = oral administration of 3 and 10 mg/kg of Example 27 and Example 40, respectively

T2 sequence (P23219 24-599): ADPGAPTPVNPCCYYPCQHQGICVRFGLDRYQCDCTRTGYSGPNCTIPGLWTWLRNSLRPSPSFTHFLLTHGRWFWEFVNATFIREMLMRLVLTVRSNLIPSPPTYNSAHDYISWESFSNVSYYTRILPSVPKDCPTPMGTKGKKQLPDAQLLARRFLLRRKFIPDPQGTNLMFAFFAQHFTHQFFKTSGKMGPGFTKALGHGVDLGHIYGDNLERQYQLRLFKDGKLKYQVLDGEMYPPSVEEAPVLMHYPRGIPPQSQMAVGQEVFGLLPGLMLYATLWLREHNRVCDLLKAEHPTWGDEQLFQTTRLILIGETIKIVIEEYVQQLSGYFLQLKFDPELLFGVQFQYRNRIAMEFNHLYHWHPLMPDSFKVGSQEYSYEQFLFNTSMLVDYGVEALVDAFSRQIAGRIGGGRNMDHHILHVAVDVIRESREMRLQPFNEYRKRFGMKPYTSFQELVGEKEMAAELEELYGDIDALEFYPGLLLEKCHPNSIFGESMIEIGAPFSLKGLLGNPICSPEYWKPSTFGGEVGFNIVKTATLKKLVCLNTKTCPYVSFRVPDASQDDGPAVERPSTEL

| SMILES | IC50 (COX-2) [µM] | IC50 (COX-1) [µM] | ED50 (ddY mice [2]; [4]) [mg/kg] | also measured |
| --- | --- | --- | --- | --- |
| COc1ccc(-c2nc(C3CCN(C(=O)N(C)O)CC3)sc2-c2ccc(OC)cc2)cc1 [Example 27, 4-(4,5-Bis(4-methoxyphenyl)thiazol-2-yl)-1-(N-hydroxy-N-methylcarbamoyl)piperidine] | > 10 | < 0.1 | 2.46 | indicator of pain (licking time), phase II (ddY mice [1]): significantly improved; indicator of pain (licking time), phase I (ddY mice [1]): significantly improved; ED50 (ddY mice [2]; [3]): 1.82 mg/kg; activity ratio (analgesic effects) (ddY mice [2]; subcutaneous administration, compared with Reference Example 93 (toluenesulfonate)): at least 54 times; activity ratio (analgesic effects) (ddY mice [2]; subcutaneous administration, compared with Reference Example 199): about 19 times; results of the von Frey test (ICR mice; [5]): significantly improved |
| COc1ccc(-c2nc(C3(C#N)CCN(C(=O)N(C)O)CC3)sc2-c2ccc(OC)cc2)cc1 [Example 56, 4-(4,5-Bis(4-methoxyphenyl)thiazol-2-yl)-4-cyano-1-(N-hydroxy-N-methylcarbamoyl)piperidine] | > 10 | < 0.1 | 4.61 |  |
| COc1ccc(-c2cc(C3CCN(C(=O)N(C)O)CC3)nn2-c2ccc(OC)cc2)cc1 [Example 40, 4-(1,5-Bis(4-methoxyphenyl)-1H-pyrazol-3-yl)-1-(N-hydroxy-N-methylcarbamoyl)piperidine] | > 10 | < 0.1 | 1.64 | indicator of pain (licking time), phase II (ddY mice [1]): significantly improved; indicator of pain (licking time), phase I (ddY mice [1]): significantly improved; ED50 (ddY mice [2]; [3]): 2.47 mg/kg; activity ratio (analgesic effects) (ddY mice [2]; subcutaneous administration, compared with Reference Example 103 (sulfate)): at least 40 times; results of the von Frey test (ICR mice; [5]): significantly improved |
| COc1ccc(-c2nc(C3(C#N)CCN(C(=O)N(C)O)CC3)oc2-c2ccc(OC)cc2)cc1 [Example 47, 4-(4,5-Bis(4-methoxyphenyl)oxazol-2-yl)-4-cyano-1-(N-hydroxy-N-methylcarbamoyl)piperidine] | > 10 | < 0.1 | 3.3 |  |
| COc1ccc(-c2nc(C3CCN(C(=O)N(C)O)CC3)oc2-c2ccc(F)cc2)cc1 [Example 9, 4-(5-(4-Fluorophenyl)-4-(4-methoxyphenyl)oxazol-2-yl)-1-(N-hydroxy-N-methylcarbamoyl)-piperidine] | > 10 | < 0.1 | 2.63 |  |
| COc1ccc(-c2nc(C3CCN(C(=O)N(C)O)CC3)oc2-c2ccc(Cl)cc2)cc1 [Example 20, 4-(5-(4-Chlorophenyl)-4-(4-methoxyphenyl)oxazol-2-yl)-1-(N-hydroxy-N-methylcarbamoyl)-piperidine] | > 10 | < 0.1 | 6.45 |  |
| COC(=O)C1(c2nc(-c3ccc(OC)cc3)c(-c3ccc(OC)cc3)o2)CCN(C(=O)N(C)O)CC1 [Example 14, Methyl 4-(4,5-bis(4-methoxyphenyl)oxazol-2-yl)-1-(N-hydroxy-N-methylcarbamoyl)-4-piperidinecarboxylate] | > 10 | < 0.1 | 4.17 | results of the von Frey test (ICR mice; oral administration of 10 mg/kg): significantly improved |

Continued, in another order:

| IC50 (COX-2) [µM] | IC50 (COX-1) [µM] | SMILES | ED50 (ddY mice [2]; [4]) [mg/kg] | also measured |
| --- | --- | --- | --- | --- |
| > 10 | < 0.1 | COc1ccc(-c2nc(C3CCN(C(=O)N(C)O)CC3)oc2-c2ccc(C)cc2)cc1 [Example 7, 4-(4-(4-Methoxyphenyl)-5-(4-tolyl)oxazol-2-yl)-1-(N-hydroxy-N-methylcarbamoyl)piperidine] | 3.27 |  |
| > 10 | < 0.1 | COc1ccc(-c2oc(C3CCN(C(=O)N(C)O)CC3)nc2-c2ccc(C)cc2)cc1 [Example 4, 4-(5-(4-Methoxyphenyl)-4-(4-tolyl)oxazol-2-yl)-1-(N-hydroxy-N-methylcarbamoyl)piperidine] | 4.02 |  |
| > 10 | < 0.1 | COc1ccc(-c2nc(C3CCN(C(=O)N(C)O)CC3)oc2-c2ccc(OC)cc2)cc1 [Example 1, 4-(4,5-Bis(4-methoxyphenyl)oxazol-2-yl)-1-(N-hydroxy-N-methylcarbamoyl)piperidine] | 2.02 | ED50 (ddY mice [2]; Table 4, oral administration, comparison with similar known compound, read-out: ED50 (mg/kg) [90% confidence limit]): 2.02 mg/kg; activity ratio (analgesic effects) (ddY mice [2]; oral administration, compared with Reference Example 78 (sulfate)): at least 49 times |

— patent publication US20100234395A1, “UREIDE DERIVATIVE AND PHARMACEUTICAL APPLICATION THEREOF” (TORAY INDUSTRIES, INC., priority 2006, published 2010)
